Data set [1] in a line: Test Example 1: plasma level after single intravenous, subcutaneous and oral administration. The data set is classed as in vivo, male SD rats. Particulars: for bioavailability / Cmax / Tmax / AUC: rat, plasma, fasted male SD rats; for bioavailability: read-out: F (bioavailability); for AUC: trapezoidal method. How it is done:
0.5 mg/kg of the (−) isomer of the present compound (hydrochloride) (1 mL/kg of 0.5 mg/mL aqueous solution in physiological saline) was administered to the tail vein of each of male SD rats fasted since the previous day, and 5 minutes, 10 minutes, 20 minutes, 30 minutes, 45 minutes, 1 hour, 1.5 hours, 2 hours, 3 hours, 4 hours, and 6 hours after administration, whole blood was collected from the abdominal aorta.
1 mg/kg of the (−) isomer of the present compound (hydrochloride) (5 mL/kg of 0.2 mg/mL aqueous solution) was administered subcutaneously to the back of the neck of each of male SD rats fasted since the previous day, and 5 minutes, 10 minutes, 20 minutes, 30 minutes, 1 hour, 1.5 hours, 2 hours, 3 hours, 4 hours, 6 hours, 8 hours and 10 hours after administration, whole blood was collected from the abdominal aorta.
10 mg/kg of the (−) isomer of the present compound (hydrochloride) (10 mL/kg of 1 mg/mL aqueous solution) was administered forcedly orally to male SD rats fasted since the previous day, and 5 minutes, 10 minutes, 20 minutes, 30 minutes, 1 hour, 1.5 hours, 2 hours, 3 hours, 4 hours, 6 hours, 8 hours and 10 hours after administration, whole blood was collected from the abdominal aorta.
The blood collected from each rat was transferred to a blood collecting tube containing 2Na EDTA, then sufficiently mixed by turning the tube upside down, and then centrifuged at 3,000 rpm for 10 minutes, and the obtained plasma was recovered. The plasma was freeze-preserved at −20° C. until analysis. The plasma level of the compound was measured by high performance liquid chromatography (HPLC). As a pharmacokinetic parameter, AUCO-t (area under the blood level-time curve, hereinafter referred to as “AUC”) was calculated by a trapezoidal method, and Cmax (maximum blood concentration) and tmax (time-to-maximum blood concentration) were determined from actual measurement values.

Data set [2] in a line: Test Example 4: plasma and brain homogenate concentrations after oral and intraoral administration. The data set is classed as in vivo, male SD rats. The settings on record: rats. The method, then: The (−) isomer of the present compound (hydrochloride) was administered forcedly orally in a dose of 10 mg/kg (10 mL/kg of 1 mg/mL aqueous solution) to fasted male SD rats, and 5, 15, 30, 60 and 120 minutes after administration, whole blood was collected from the abdominal aorta.
The (−) isomer of the present compound (hydrochloride) was dropped in a dose of 1 mg/kg (0.1 mL/kg of 10 mg/mL aqueous solution) into the oral cavity of each fasted male SD rat anesthetized under ether. In the case of the powder preparation, the preparation which had been weighed so as to be in a dose of 1 mg/kg was placed beneath the tongue of each rat under anesthesia. In either case, the rats were left for 1 minute under anesthesia and then returned to cages, and 5, 15, 30, 60 and 120 minutes after administration, whole blood was collected from the abdominal aorta.
The blood collected from each rat was treated in the same manner as in Test Example 1. After blood collection, blood in the body of each rat was perfused with refrigerated physiological saline, and the cerebrum was excised therefrom. The cerebrum was cut thin with a knife and homogenized in 5 mL physiological saline added per gram of the tissues. 0.5 mL acetonitrile was added to 0.5 mL of the brain homogenate which was then stirred by means of a test tube mixer and centrifuged at 10,000 rpm for 5 minutes, to give a supernatant.
The concentrations of the compound in the plasma and in the brain homogenate were measured by LC/MS/MS. Simultaneously, the metabolites were quantitatively determined by using metabolite standards.

The mark [3] stands for this setting: intraoral 1 mg/kg vs oral 10 mg/kg.

Each structure is given as a SMILES string. Counter-ions that a name gives are not always drawn. Like-named read-outs stand apart in the source and are kept apart here.

In general, Cmax refers to the highest concentration seen after dosing. Usually Tmax stands for the time from dosing to the highest level. As usually defined, the AUC is the area under the concentration-time curve, a measure of exposure. A higher AUC goes with high exposure.

With `CCCNC(CCC)Cc1cc2ccccc2o1` (single isomer, unassigned; (-)) [(−) isomer of the present compound (hydrochloride), (−)-1-(benzofuran-2-yl)-2-propylaminopentane], the “blood level in the oral administration” value in data set [1] (oral 10 mg/kg, rats) was “low as compared with the given dose”. For the same compound, in data set [1] (sc, subcutaneous, 1 mg/kg), the bioavailability amounted to 144%, the Cmax is 135 ng/mL, the Tmax was determined as 10.2 min and the AUC is 231 ng·h/mL. In data set [1] (oral, 10 mg/kg), the bioavailability was found to be 4.1%, the Cmax came to 86.9 ng/mL, the Tmax worked out at 10.2 min and the AUC came out at 65.4 ng·h/mL. In data set [1] (intravenous, 0.5 mg/kg), the highest concentration (Cmax) came out at 94.1 ng/mL, the Tmax came out at 4.8 min and the AUC was 80 ng·h/mL. Besides, the “blood concentration in intraoral administration compared with oral administration” value in data set [2] (intraoral 1 mg/kg (aqueous solution, powder preparation) vs oral 10 mg/kg) is recorded as “equal to or higher than that in the oral administration”. Further, in data set [2] (setting [3]), the “metabolites in intraoral administration compared with oral administration” value is listed as “lower metabolites” and the “transferability of the compound to the brain (concentration in the brain homogenate)” value is on record as “significantly higher than in the oral administration”.

Source of the values: patent US20100137429A1, “COMPOSITION FOR T[…] TRANSMUCOSAL ADMINISTRATION” (FUJIMOTO CO., LTD., priority 2007, published 2010).
